Key:
Bcl-xl expression = conditions: MCF7-FGFR4 cells, 10 μM U0126 for 6 hours and 12 hours
Description: RNA was isolated using the RNeasy Mini Kit (Qiagen, Hilden, Germany) and reversely transcribed into cDNA using the AMV reverse transcriptase (Roche, Mannheim, Germany) and OligodT-Primer (Gibco, Germany). The RNA and cDNA concentration was measured using the NanoDrop ND1000 (PeqLab, Erlangen, Germany) system. […] PCR products were subjected to electrophoresis on a 2% agarose gel and DNA was visualized by ethidium bromide staining.

[1] = tested on: Fgfr4 mediated downstream signalling (p-Erk); experiment: FGF19 induced MAPK activation (P-ERK immunoblot) in breast cancer cell lines; assay type: cell-based; conditions: BT-474, MDA-MB-361 and ZR75-1 starved 48 h; compared to not stimulated control cells
Description: Secondary HRP-conjugated antibodies were goat anti-mouse (Sigma, Taufkirchen, Germany) and goat anti-rabbit (Biorad, Munich, Germany).
Cell cultures were washed with PBS and incubated at 4° C. with lysis buffer (50 mM HEPES/NaOH, pH 7.5, 150 mM NaCl, 1 mM EDTA, 10% glycerol and 1% Triton X-100) supplemented with phosphatase and protease inhibitors (10 mM sodium pyrophosphate, 1 mM PMSF, 2 mM sodium orthovanadate, 10 μg/ml aprotinin). Cellular debris was removed by centrifugation. Protein concentration measurements were performed using the Micro-BCA-Protein-Assay Kit from Pierce (Bonn, Germany). For immunoprecipitations, whole-cell lysates were combined with antibody and 30 μl of protein A- or G-sepharose slurry (GE Healthcare). The samples were incubated for 3 h on a rotation wheel at 4° C. The precipitates were washed three times with HNTG buffer (20 mM HEPES/NaOH, pH 7.5, 150 mM NaCl, 10% glycerol, 0.1% Triton X-100 and 10 mM sodium pyrophosphate) suspended in 3×SDS sample buffer, boiled for 3 min and subjected to SDS-PAGE. For Western blot analysis, proteins were transferred to nitrocellulose membranes and incubated with the appropriate antibodies. Signals were developed via an enhanced chemiluminescence detection system (ECL, Perkin Elmer, Wellesley, Mass.). Before reprobing, membranes were stripped with 65 mM Tris/HCl pH 6.8 buffer containing 2% SDS at 50° C. for 1 h.

Molecule | Bcl-xl expression (semiquantitative PCR) (Bcl-xl expression) | p-Erk-levels on FGF19 stimulation [1]
N#CC(=C(/N)Sc1ccccc1N)/C(C#N)=C(\N)Sc1ccccc1N [U0126] | abolished | 
FGF19: specific ligand of Fgfr4, FGF-Ligands purchased from TEBU |  | increased

From patent publication US20100143386A1, “FGFR4 Promotes Cancer Cell Resistance in Response to Chemotherapeutic Drugs” (Max-Planck-Gesellschaft zur foerderung der Wissenschaften, …, priority 2006, published 2010)
